Experimental data from patent EP4592286A1, “MACROCYCLIC NITROGEN-CONTAINING CROWN ETHER COMPOUND AND USE THEREOF AS PROTEIN KINASE INHIBITOR” (Artivila Biopharma, priority 2022, dated 2024).
≈ marks a conversion by molar mass, not a printed value.

How the values were obtained:
[1] = measurement of the solubility of compounds in water and diluted hydrochloric acid; type: physicochemical; conditions: thermodynamic from solid
Description: Example 117: measurement of the solubility of compounds in water and diluted hydrochloric acid
The compounds were dissolved in acetonitrile (LCMS pure) and prepared into standard samples having the concentration gradient of 1000 µg/mL, 500 µg/mL, 250 µg/mL, 125 µg/mL, 62.5 µg/mL, and 31.25 µg/mL.
(§1) About 1.0 mg of the powder of the compound to be tested was weighed and added to 0.3 mL of ultrapure water (pH-6), the resulting mixture was shaked thoroughly at room temperature overnight and centrifuged, and the supernatant was taken and diluted 10 times with acetonitrile. The sample was analyzed after mixing evenly.
as §1, with “153.8 µL of 6 M HCl was pipetted, 20 mL of water was added, and mixed evenly to prepare diluted hydrochloric acid solution A (pH-1.5). About” for “About”, “diluted hydrochloric acid solution A,” for “ultrapure water (pH-6),”, “for 1 hour” for “overnight”
The standard sample and the sample to be tested were analyzed by Shimadzu LCMS-2020, where chromatographic column was Skim-psck GIST 5 µm C18 2.1*[…]; mobile phase A was water and mobile phase B was methanol; and flow rate was 0.3 mL/min. The gradient of B was as the following: 0 min: 10%; 0-1.0 min: 10%; 1.0-2.5 min: 95%; 3.0-4.0 min: 95%; 4.0-4.1 min: 10%; 4.1-6.0 min: 10%.
The relationship between the concentration and peak area of the standard sample was ploted into a standard curve, and the concentration of the sample to be tested was calibrated using this standard curve. Compound solubility = concentration of the sample to be tested × 10 [formula]

LRRK2 (G2019S) = molecular target: T1, LRRK2 (G2019S) (Homo sapiens, UniProt Q5S007, G2019S); assay: detection of phosphorylated S935 in HEK293T overexpressing full-length LRRK2 (G2019S); type: cell-based; conditions: pS935, HEK293T overexpressing LRRK2 (G2019S), 1.5 hours
T1 construct: pcDNA5-FRT/TO-FLAG LRRK2 (G2019S, full-length); expressed in transfected cells; host or cells: HEK293T
Description: (§2) Detection of phosphorylated S935 in HEK293T Overexpressing full-length LRRK2 (G2019S) or wild-type LRRK2
(§3) HEK293T cells was inoculated into a 6-well plate and cultured overnight. The next day, they were transiently transfected with plasmid pcDNA5-FRT/TO-FLAG LRRK2 (G2019S, full-length) or pCMV-flag-WT LRRK2 (full-length) by using Superfect transfection reagent and cultured at 37°C and 5% CO2 for 20-24 hours. The next day, cells were collected, resuspended at a density of 0.48×10^6 cells/ml, and inoculated into a 384-well plate at 50 microliters/well. Compound or DMSO solutions (volume ratio of 0.5%) were added by Tecan, and cultured at 37°C and 5% CO2 for 1.5 hours. After 1.5 hours, the supernatant was discarded, 50 microliters of 8% PFA were added in each well to fix the cells, and the cells were incubated at room temperature for 1 hour. The plate was washed with EL406 plate washer for three times, with 115 microliters of PBST per well, and the culture plate was patted to dryness. The cells were blocked with 50 microliters/well of Licor Odyssey blocking solution (0.1% Tween 20) at room temperature for 1.5 hours. The blocking solution was discarded and the culture plate was patted to dryness. 20 microliters of primary antibody (1:1000(pS935), diluted with Licor Odyssey buffer (0.1% Tween20)) was added into each well, and incubated at 4 °C overnight. The next day, the first antibody was discarded and washing was performed with PBST for five times. 20 microliters of secondary antibody (diluted with Licor Odyssey buffer (0.1% Tween20) at 1:500 and stained with DNA at 1:2000) were added into each well, and incubated at room temperature for 1 hour. The second antibody was discarded, and washing was performed for three times with PBST. The fluorescence intensity was measured by LICOR Odyssey imager Scanner, and the data was analyzed.

LRRK2 = LRRK2 (Homo sapiens, UniProt Q5S007); assay: experiment of inhibiting kinase activity, LRRK2; type: biochemical; conditions: for IC50: kinase activity assay, Table 3
Description: (§4) The inhibition rates of tested compounds on JAK1, JAK2, JAK3, TYK2, CDK7, CDK9, EGFR (T790M) and LRRK2 kinases were measured. The test concentrations of the compounds were 10 nM and 100 nM, and the detection was performed by replicate wells. Alternatively, compounds were 3-fold serial diluted from 10 µM for 10 concentrations in replicate wells.

wild-type LRRK2 = molecular target: T2, wild-type LRRK2 (Homo sapiens, UniProt Q5S007); assay: detection of phosphorylated S935 in HEK293T overexpressing wild-type LRRK2; type: cell-based; conditions: pS935, HEK293T overexpressing wild-type LRRK2, 1.5 hours
T2 construct: pCMV-flag-WT LRRK2 (full-length); expressed in transfected cells; host or cells: HEK293T
Description: as §2, §3

CDK7 = CDK7 (Homo sapiens, UniProt P50613); assay: experiment of inhibiting kinase activity (Caliper mobility shift assay), CDK7; type: biochemical; conditions: at 100 nM; read-out: inhibition rate CDK7
In short: (§5)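 Inhibition is measured as reduced conversion of substrate by the kinase, separated by microfluidic mobility shift after a room-temperature reaction started with ATP/substrate following a 10-min compound preincubation. Test doses are 10 nM, 100 nM, or a 10-point 3-fold series from 10 µM.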

MV-4-11 cells = assay: CDK9 cell activity test (Cell Titer-GLO cell growth inhibition), MV-4-11; type: cell-based; conditions: Homo sapiens, MV4-11, 72 hours
Description: In these experiments, the cell line MV-4-11 was cultured in IMDM culture solution (containing 100 U/mL penicillin and 0.1 g/L streptomycin), the cell line HCC1187 was cultured in RPMI-1640 culture solution (containing 100 U/mL penicillin and 0.1 g/L streptomycin) containing 10% fetal bovine serum, the cell line Mia Paca-2 was cultured in DMEM (containing 100 U/mL penicillin and 0.1 g/L streptomycin) containing 10% fetal bovine serum and 2.5% horse serum, and the cell line A375 was cultured in RPMI-1640 culture solution (containing 100 U/mL penicillin and 0.1 g/L streptomycin) containing 10% fetal bovine serum. All cells were cultured in a saturated humidity incubator with 37 °C and 5% CO2.
When MV-4-11 cells, HCC-1187 cells, Mia Paca-2 cells and A375 cells grew to 80% -90% confleuncy, they were digested with trypsin, resuspended, counted and diluted to a certain cell density with complete medium, and inoculated into 96-well plate at 100 µL/well. With complete medium as background control, they were cultured overnight in a saturated humidity incubator with 37°C and 5% CO2. The compound was diluted to 200-fold of the final concentration using DMSO, 3 µL of DMSO storage solution of the above compound was added to 197 µL of complete medium, 50 µL of compound diluted in medium was added to cells in each well, and cultivated in a saturated humidity incubator with 37°C and 5% CO2 for 72 hours. After 72 hours, the culture plate was placed at room temperature for equilibrium, and 40 µl of Cell Titer-GLO® reagent was added to each well. The cells were lysed by mixing evenly for 2 minutes using a shaker, incubated at room temperature for 60 minutes to stabilize the chemiluminescence signal, and the chemiluminescence was read by PE EnVision microtiter plate reader. The cell growth inhibition rate Inh%=(DMSO well - compound treatment well)/(DMSO well - background well)×100 was calculated, and the cell growth IC50 value was obtained by fitting with GraphPad Prism 5 .

JAK3 = molecular target: T3, JAK3 (Homo sapiens, UniProt P52333); assay: experiment of inhibiting kinase activity (Caliper mobility shift assay), JAK3; type: biochemical; conditions: at 100 nM; read-out: inhibition rate JAK3
T3 sequence (P52333 1-1124): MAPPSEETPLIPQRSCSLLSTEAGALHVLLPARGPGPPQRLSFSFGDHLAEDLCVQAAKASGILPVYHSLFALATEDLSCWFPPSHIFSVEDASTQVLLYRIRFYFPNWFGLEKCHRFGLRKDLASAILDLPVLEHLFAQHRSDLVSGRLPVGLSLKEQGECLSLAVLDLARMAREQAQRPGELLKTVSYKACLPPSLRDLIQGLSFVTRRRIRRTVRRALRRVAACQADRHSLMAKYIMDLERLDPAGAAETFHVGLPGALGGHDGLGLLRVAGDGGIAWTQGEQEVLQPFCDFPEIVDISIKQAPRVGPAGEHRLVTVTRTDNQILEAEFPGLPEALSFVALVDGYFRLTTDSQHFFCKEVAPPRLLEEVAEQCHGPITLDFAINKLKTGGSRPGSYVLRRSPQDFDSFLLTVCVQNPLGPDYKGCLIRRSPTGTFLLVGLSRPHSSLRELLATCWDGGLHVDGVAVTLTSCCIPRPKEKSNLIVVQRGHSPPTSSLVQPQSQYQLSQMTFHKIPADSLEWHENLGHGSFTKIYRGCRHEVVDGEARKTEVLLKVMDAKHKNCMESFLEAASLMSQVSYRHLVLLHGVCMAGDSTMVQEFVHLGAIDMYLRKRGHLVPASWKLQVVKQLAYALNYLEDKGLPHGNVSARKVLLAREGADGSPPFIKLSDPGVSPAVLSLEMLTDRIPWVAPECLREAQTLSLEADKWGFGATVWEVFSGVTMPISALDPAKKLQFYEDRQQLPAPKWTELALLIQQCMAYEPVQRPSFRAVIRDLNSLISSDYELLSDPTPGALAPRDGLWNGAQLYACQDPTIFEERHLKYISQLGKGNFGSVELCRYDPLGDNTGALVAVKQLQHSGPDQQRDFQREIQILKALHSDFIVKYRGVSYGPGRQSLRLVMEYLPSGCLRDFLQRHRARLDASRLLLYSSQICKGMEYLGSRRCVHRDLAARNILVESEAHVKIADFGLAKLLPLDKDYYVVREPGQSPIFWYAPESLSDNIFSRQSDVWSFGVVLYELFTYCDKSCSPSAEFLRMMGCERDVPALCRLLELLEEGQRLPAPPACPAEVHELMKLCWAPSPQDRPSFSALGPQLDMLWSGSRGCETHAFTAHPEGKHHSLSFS
In short: as §5

JAK1 = JAK1 (Homo sapiens, UniProt P23458); assay: experiment of inhibiting kinase activity (Caliper mobility shift assay), JAK1; type: biochemical; conditions: read-out: inhibition rate JAK1; for inhibition at 0.01 µM: at 10 nM
In short: as §5

CDK9 = CDK9 (Homo sapiens, UniProt P50750); assay: experiment of inhibiting kinase activity (Caliper mobility shift assay), CDK9; type: biochemical; conditions: for inhibition at 0.01 µM: at 10 nM; for IC50: kinase activity assay, Table 3
In short: as §5

JAK2 = JAK2 (Homo sapiens, UniProt O60674); assay: experiment of inhibiting kinase activity (Caliper mobility shift assay), JAK2; type: biochemical; conditions: read-out: inhibition rate JAK2; for inhibition at 0.01 µM: at 10 nM
In short: as §5

TYK2 = TYK2 (Homo sapiens, UniProt P29597); assay: experiment of inhibiting kinase activity, TYK2; type: biochemical; conditions: read-out: inhibition rate TYK2; for inhibition at 0.01 µM: at 10 nM
Description: as §4

CDK9, sequence (P50750 whole entry): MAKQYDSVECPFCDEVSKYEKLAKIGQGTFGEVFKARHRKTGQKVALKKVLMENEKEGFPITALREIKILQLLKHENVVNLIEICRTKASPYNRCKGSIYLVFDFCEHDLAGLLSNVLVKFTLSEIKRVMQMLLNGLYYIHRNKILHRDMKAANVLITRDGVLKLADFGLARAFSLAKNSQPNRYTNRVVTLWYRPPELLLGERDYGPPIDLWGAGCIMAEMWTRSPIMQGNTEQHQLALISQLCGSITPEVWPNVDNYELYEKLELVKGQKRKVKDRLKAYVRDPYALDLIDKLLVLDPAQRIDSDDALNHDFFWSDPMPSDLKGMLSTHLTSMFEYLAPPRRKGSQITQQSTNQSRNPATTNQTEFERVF
CDK9, sequence (O60563 whole entry partner): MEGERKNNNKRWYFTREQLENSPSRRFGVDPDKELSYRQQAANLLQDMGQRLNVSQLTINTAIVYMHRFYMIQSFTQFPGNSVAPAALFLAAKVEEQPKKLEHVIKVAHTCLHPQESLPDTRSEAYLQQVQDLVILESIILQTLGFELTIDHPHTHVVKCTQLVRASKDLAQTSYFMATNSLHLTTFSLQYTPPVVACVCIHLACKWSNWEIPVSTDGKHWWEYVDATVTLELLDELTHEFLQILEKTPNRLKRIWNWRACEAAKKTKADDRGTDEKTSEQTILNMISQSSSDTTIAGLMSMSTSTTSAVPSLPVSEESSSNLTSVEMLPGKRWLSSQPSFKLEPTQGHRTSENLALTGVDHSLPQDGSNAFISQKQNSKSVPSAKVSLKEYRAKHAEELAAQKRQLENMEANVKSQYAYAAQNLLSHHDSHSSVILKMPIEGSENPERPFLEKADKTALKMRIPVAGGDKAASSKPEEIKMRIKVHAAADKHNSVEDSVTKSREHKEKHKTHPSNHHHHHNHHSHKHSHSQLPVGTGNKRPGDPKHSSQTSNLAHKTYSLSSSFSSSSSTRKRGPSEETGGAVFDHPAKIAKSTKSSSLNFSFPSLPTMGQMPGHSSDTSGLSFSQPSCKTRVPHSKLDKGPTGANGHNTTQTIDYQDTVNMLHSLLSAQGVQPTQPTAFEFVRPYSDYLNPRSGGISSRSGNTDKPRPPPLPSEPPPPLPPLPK
JAK1, sequence (P23458 whole entry): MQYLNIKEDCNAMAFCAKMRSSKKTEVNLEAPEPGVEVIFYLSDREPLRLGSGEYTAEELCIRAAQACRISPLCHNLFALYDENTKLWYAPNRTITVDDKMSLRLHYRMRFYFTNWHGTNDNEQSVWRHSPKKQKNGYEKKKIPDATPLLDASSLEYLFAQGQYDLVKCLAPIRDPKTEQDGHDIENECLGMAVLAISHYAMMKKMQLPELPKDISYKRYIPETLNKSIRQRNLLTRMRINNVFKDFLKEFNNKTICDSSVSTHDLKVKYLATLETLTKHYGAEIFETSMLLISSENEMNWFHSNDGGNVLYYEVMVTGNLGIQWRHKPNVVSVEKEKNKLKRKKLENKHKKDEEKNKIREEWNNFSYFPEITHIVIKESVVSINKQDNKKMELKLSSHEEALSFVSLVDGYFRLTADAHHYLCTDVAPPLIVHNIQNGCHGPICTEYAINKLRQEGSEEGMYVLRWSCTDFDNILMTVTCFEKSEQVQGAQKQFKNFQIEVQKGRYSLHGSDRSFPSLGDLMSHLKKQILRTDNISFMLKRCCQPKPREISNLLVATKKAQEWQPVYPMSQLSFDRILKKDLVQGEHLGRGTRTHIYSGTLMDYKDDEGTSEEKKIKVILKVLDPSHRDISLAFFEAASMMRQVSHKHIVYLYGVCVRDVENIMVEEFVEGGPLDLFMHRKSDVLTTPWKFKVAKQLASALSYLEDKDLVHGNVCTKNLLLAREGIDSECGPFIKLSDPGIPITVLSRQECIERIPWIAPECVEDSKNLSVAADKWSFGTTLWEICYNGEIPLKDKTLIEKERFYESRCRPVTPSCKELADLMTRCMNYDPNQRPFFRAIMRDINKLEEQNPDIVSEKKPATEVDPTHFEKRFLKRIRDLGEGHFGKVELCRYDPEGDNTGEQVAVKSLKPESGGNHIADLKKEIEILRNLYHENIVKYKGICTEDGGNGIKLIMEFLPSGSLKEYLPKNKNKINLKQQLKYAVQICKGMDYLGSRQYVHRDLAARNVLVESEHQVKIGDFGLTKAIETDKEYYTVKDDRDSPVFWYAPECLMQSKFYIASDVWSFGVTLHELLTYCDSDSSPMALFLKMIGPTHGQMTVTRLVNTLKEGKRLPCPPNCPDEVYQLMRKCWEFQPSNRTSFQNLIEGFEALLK
JAK2, sequence (O60674 whole entry): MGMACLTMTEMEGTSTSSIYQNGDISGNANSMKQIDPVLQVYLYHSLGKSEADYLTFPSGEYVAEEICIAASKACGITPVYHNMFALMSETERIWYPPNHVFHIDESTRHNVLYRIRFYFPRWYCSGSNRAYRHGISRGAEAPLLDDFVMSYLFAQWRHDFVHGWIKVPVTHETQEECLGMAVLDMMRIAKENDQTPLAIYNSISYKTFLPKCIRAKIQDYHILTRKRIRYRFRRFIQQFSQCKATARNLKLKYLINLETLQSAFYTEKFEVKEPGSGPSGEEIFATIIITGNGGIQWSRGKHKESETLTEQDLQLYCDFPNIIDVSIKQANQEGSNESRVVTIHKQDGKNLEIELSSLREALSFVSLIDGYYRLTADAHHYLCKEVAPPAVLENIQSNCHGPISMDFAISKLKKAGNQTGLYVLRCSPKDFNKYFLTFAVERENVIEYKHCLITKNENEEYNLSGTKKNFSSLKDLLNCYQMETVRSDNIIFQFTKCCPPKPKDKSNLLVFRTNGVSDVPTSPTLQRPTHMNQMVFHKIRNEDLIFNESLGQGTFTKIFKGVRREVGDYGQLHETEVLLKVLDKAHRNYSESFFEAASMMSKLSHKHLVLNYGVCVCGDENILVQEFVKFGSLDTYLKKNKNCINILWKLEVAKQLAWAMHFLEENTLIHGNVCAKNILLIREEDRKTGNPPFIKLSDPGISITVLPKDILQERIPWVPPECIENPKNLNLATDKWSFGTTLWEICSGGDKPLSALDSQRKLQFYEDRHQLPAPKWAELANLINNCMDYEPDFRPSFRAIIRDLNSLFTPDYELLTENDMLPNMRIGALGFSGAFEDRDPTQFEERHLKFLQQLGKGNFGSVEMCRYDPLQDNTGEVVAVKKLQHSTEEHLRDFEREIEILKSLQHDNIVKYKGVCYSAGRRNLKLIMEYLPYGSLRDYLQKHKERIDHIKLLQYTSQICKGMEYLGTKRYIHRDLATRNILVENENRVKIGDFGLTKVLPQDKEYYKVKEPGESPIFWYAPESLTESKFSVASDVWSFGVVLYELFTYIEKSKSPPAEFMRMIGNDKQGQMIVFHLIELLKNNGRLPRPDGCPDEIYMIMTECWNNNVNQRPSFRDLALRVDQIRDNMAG
TYK2, sequence (P29597 whole entry): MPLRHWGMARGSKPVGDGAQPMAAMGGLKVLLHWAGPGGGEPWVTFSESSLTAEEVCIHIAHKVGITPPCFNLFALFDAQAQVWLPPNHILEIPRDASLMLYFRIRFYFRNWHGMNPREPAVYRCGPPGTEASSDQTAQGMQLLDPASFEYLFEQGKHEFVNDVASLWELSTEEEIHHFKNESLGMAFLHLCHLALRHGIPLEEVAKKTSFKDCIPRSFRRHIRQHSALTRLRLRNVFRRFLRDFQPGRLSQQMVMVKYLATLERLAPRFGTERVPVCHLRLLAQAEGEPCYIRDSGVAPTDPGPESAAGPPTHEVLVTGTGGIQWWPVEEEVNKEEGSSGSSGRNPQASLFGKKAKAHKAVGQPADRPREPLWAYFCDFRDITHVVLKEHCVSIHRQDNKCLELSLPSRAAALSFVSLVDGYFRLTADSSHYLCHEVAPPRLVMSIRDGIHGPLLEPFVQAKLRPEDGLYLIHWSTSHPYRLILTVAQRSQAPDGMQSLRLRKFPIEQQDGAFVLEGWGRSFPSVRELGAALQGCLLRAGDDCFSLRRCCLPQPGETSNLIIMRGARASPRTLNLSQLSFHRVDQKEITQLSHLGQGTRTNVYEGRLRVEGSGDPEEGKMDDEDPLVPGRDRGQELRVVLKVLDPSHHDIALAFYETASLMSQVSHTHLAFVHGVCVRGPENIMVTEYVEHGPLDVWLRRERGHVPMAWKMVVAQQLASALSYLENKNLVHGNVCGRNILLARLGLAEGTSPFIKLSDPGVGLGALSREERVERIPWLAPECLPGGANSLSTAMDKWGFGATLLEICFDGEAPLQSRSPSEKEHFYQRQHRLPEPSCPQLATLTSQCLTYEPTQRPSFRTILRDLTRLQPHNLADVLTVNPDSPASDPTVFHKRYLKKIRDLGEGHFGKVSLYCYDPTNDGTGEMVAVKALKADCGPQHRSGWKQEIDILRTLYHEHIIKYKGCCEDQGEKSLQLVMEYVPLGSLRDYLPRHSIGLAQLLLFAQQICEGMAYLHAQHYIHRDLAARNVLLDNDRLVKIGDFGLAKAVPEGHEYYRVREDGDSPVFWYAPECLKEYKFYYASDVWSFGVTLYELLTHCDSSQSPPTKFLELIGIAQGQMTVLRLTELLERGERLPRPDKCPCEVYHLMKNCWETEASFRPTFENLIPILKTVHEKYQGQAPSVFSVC

solubility at 1 h ([1]; simulated gastric fluid, diluted hydrochloric acid solution A (pH-1.5), room temperature, 1 hour) [µg/mL]	solubility ([1]; ultrapure water (pH-6), room temperature overnight) [µg/mL]	EC50 (LRRK2 (G2019S)) [µM]	IC50 (LRRK2) [µM]	EC50 (wild-type LRRK2) [µM]	inhibition at 0.1 µM (CDK7) [%]	IC50 (MV-4-11 cells) [µM]	inhibition at 0.1 µM (JAK3) [%]	inhibition at 0.01 µM (JAK1) [%]	inhibition at 0.1 µM (JAK1; at 100 nM) [%]	inhibition at 0.01 µM (CDK9; read-out: inhibition rate CDK9) [%]	inhibition at 0.1 µM (CDK9; at 100 nM, read-out: inhibition rate CDK9) [%]	IC50 (CDK9) [µM]	inhibition at 0.1 µM (LRRK2; at 100 nM, read-out: inhibition rate LRRK2) [%]	inhibition at 0.01 µM (JAK2) [%]	inhibition at 0.1 µM (JAK2; at 100 nM) [%]	inhibition at 0.01 µM (TYK2) [%]	inhibition at 0.1 µM (TYK2; at 100 nM) [%]	inhibition at 0.01 µM (LRRK2; at 10 nM, read-out: inhibition rate LRRK2) [%]	Compound
> 3070	368 (≈ 740 µM)	< 0.5	< 0.05	< 0.5	–	–	–	–	–	–	–	–	–	–	–	–	–	–	CN1CCOCCOc2ccc(Nc3nc(O[C@H]4CC[C@@](C)(O)CC4)c4cc[nH]c4n3)cc2OCC1 [Example 6, 1-methyl-4-((2-((7-methyl-2,3,6,7,8,9-hexahydro-5H-benzo[b][1,4,7]trioxa[10]azacyclododecan-12-yl)amino)-7H-pyrrolo[2,3-d]pyrimidin-4-yl)oxy)cyclohexanol]
–	–	–	–	–	40 to 79	< 0.1	40 to 79	25 to 39	> 80	40 to 79	> 80	< 0.05	40 to 79	> 80	> 80	40 to 79	> 80	–	CN1CCOCCOc2ccc(Nc3ncc(F)c(-c4ccc(C(=O)NCC#N)cc4)n3)cc2OCC1 [Example 44, N-(cyanomethyl)-4-(5-fluoro-2-((7-methyl-2,3,6,7,8,9-hexahydro-5H-benzo[b] [1,4,7]trioxa[10]azacyclododecan-12-yl)amino)pyrimidin-4-yl)benzamide]
–	–	< 0.5	< 0.05	< 0.5	–	–	–	25 to 39	–	–	–	–	–	> 80	–	40 to 79	–	> 80	CN1CCOc2ccc(Nc3ncc(C(F)(F)F)c(Nc4ccccc4P(C)(C)=O)n3)cc2OCC1 [Example 83, dimethyl(2-((2-((4-methyl-3,4,5,6-tetrahydro-2H-benzo[b][1,4,7]dioxazolin-9-yl)amino)-5-(trifluoromethyl)pyrimidin-4-yl)amino)phenyl)phosphine oxide]
–	–	–	–	–	–	0.1 to 1	–	–	–	40 to 79	–	< 0.05	–	–	–	–	–	–	COc1ccc(F)cc1-c1nc(Nc2ccc3c(c2)OCCN(C)CCOCCO3)ncc1F [Example 114, N-(5-fluoro-4-(5-fluoro-2-methoxyphenyl)pyrimidin-2-yl)-7-methyl-2,3,6,7,8,9-hexahydro-5H-benzo[b][1,4,7]trioxa[10]azacyclododecan-12-amine]
